Measurements taken from article PMC3816703, “Toxicity Studies on Novel N-Substituted Bicyclo-Heptan-2-Amines at NMDA Receptors” (Pharmaceuticals, 2013).
Where two headings read alike, the source gives them in different places.

Key:
MDCK cells = experiment: MTT cell viability assay on MDCK cells (24 h treatment); type: cell-based, Canine; conditions: for IC50: Canis lupus familiaris, read-out: MTT test (IC50)
Description: (§1) MDCK cells were used to simulate toxicities of the novel NMDA receptor uncompetitive antagonists 5a–f on BBB in vitro [18, 19]. We treated cells with 0–500 µM concentrations of test compound or memantine for 24 h. Cell viability was assessed by the capacity of cells to reduce the MTT dye (Figure 2A,B). […] It is known, that under therapeutic conditions in patients, the serum level of memantine is about 1 µM [20]. Since the binding potencies of some of the target compounds are in same range (micromolar) as that of memantine, the 1 µM concentration was used as reference in estimating possible therapeutic indexes. […] The mean percentage of viable cells was 101 ± 0.24 (p > 0.05), 95.6 ± 0.25 (p > 0.05) for memantine and 104 ± 0.11 (p > 0.05), 105 ± 0.06 (p > 0.05) for compound 5a at 10 and 50 µM, respectively, as compared to untreated cells.
(§2) Mouse Neuro-2a (CCL-131, ATCC, Manassas, VA, USA) and MDCK (CCL-34, ATCC) were used in this study. The cells were routinely propagated using Dulbecco’s Modification of Eagle’s Medium (DMEM, ATCC) for N2a and Eagle’s Minimum Essential Medium (EMEM, ATCC) for MDCK cells, supplemented with 10% fetal bovine serum (FBS, ATCC) and 1% penicillin/ streptomycin (Gibco, Grand Island, NY, USA) in 100 cm^2 Petri-dishes (Corning, Tewksbury, MA, USA) at 37 °C in 5% CO2. For neuronal differentiation, N2a cells were cultivated in DMEM supplemented with 2% FBS in the presence of 20 µM retinoic acid (RA, Sigma, St. Louis, MO, USA).
(§3) All six compounds 5a–f were obtained as salts. Stock solutions (1 mM) were prepared in double distilled water. The treatment concentrations for the compounds and for memantine (Sigma) were 10, 50, 100, 200, 300, and 500 μM. Cells were allowed to attach overnight prior to treatment. H2O2 served as positive control. Working concentrations were prepared immediately prior to treatment by dilution with medium.
(§4) The MTT (3-(4,5-dimethylthiazole-2-yl)-2,5-diphenyltetrazolium bromide) assay is a well-documented and widely-used cell viability assay. MTT is incorporated into the cell by endocytosis and is reduced by mitochondrial enzymes in living cells to a blue colored formazan precipitate. The absorbance of dissolved formazan in the visible region correlates with the number of intact alive cells. Cells were plated at a concentration of 13,000 to 20,000 cells/well on a 96-well round-bottom plate (Fisher, Pittsburgh, PA, USA). The MTT assay (ATCC, 30-1010K) was performed according to the manufacturer’s instructions. The following determinants were optimized for each cell line: plating cell concentration; incubation time with MTT reagent, and incubation time with detergent reagent. Absorbance was recorded at 570 nm by a microtiter plate reader (VICTOR, PerkinElmer, Waltham, MA, USA). The number of surviving cells is directly proportional to the level of the formazan product generated. Each experiment was repeated on three separate occasions and results are presented as the mean absorbance ± S.E.M.
(§5) The Student’s t test was applied to evaluate the significance of differences among each group. A p value of 0.05 or less was considered to be significant. Error bars in the graphs are expressed as S.E.M. with experiments performed in triplicate. IC50 values were calculated according to the SoftMax Pro GxP analytical software. Standard Curves were plotted using the OD Mean Value (Y) versus Concentration (X) and applying a 4-Parameter fit with a variable weight source curve fit option of 1/Y^2. Results are presented as mean ± S.E.M.

N2a cells = experiment: MTT cell viability assay on N2a cells (24 h treatment); type: cell-based, Mouse; conditions: Mus musculus, read-out: MTT test (IC50)
Description: (§6) To examine neuronal cell toxicity, N2a cells were exposed to each of compounds 5a–f or memantine for 24 h at 0–500 µM concentrations, and cell viability was measured by MTT assay. In the present experiments, increasing the concentration of antagonists increased the toxicity of both test compounds and memantine in dose dependent manner (Figure 4A,B). […] No significant reduction in cell concentration was observed using phase contrast microscopy (Figure 5). The mean percentage of viable cells was 94.6 ± 0.29 (p > 0.05), 91.6 ± 0.26 (p > 0.05) for memantine and 93 ± 0.35 (p > 0.05), 77 ± 0.35 (p > 0.05) for compound 5a at 10 and 50 µM, respectively, as compared to untreated cells.
as §2, §3, §4, §5

[1] = MTT cell viability assay on MDCK cells (24 h treatment); type: cell-based, Canine; conditions: dog, MDCK cells, 24 h, as compared to untreated cells, read-out: mean percentage of viable cells
Description: as §1, §2, §3, §4, §5

[2] = MTT cell viability assay on N2a cells (24 h treatment); type: cell-based, Mouse; conditions: mouse, N2a cells, 24 h, as compared to untreated cells, read-out: mean percentage of viable cells
Description: as §6, §2, §3, §4, §5

NMDA receptor = tested on: NMDA receptor; parameters: method as in PMID 21496213; conditions: among compounds 5a–f; cited from earlier work
[3] = tested on: MES (maximal electroshock)-induced neural damage; parameters: method as in PMID 21496213; conditions: rodents; among compounds 5a–f; cited from earlier work
[4] = patients; cited from earlier work
[5] = N2a cells, 24 h treatment, mean n = 3, concentration yielding 50% inhibition of mitochondrial enzyme activity

SMILES	IC50 (MDCK cells; MDCK, 24 h) [µM]	IC50 (N2a cells; N2a, 24 h) [µM]	IC50 (N2a cells; [5]) [µM]	also measured
Fc1ccc(C2(NCCN3CCCCC3)CC3CCC2C3)cc1 (centres unmarked) [5b]	201	291		
Fc1ccc(C2(NCCN3CCCC3)CC3CCC2C3)cc1 (centres unmarked) [5f]	305		71	
c1ccc(C2(NCCN3CCCCC3)CC3CCC2C3)cc1 (centres unmarked) [5a, 2-phenyl-N-(2-(piperidin-1-yl)ethyl)bicyclo[2.2.1]heptan-2-amine]	155	154		viability at 24 h, 10 µM [1]: 104 ± 0.11%; viability at 24 h, 50 µM [1]: 105 ± 0.06%; viability at 24 h, 10 µM [2]: 93 ± 0.35%; viability at 24 h, 50 µM [2]: 77 ± 0.35%; affinity for NMDA receptor (NMDA receptor): highest affinity; protection from MES (maximal electroshock)-induced neural damage [3]: greatest degree of protection
c1ccc(C2(NCCN3CCOCC3)CC3CCC2C3)cc1 (centres unmarked) [5c, N-(2-morpholinoethyl)-2-phenylbicyclo [2.2.1]heptan-2-amine]	424	253		
CC12CC3CC(C)(C1)CC(N)(C3)C2 [memantine, 1-amino-3,5-dimethyladamantine, reference compound]			219	viability at 24 h, 10 µM [1]: 101 ± 0.24%; viability at 24 h, 50 µM [1]: 95.6 ± 0.25%; IC50 (MDCK cells; MDCK cells, 24 h treatment, mean n = 3, concentration yielding 50% inhibition of mitochondrial enzyme activity): 197 µM; concentration above which a concentration dependent decline in numbers of viable cells occurs (MDCK cells; MDCK cells, 0–500 µM, 24 h, MTT): higher than 100 µM; viability at 24 h, 10 µM [2]: 94.6 ± 0.29%; viability at 24 h, 50 µM [2]: 91.6 ± 0.26%; serum level under therapeutic conditions [4]: about 1 µM
c1ccc(C2(NCCN3CCCC3)CC3CCC2C3)cc1 (centres unmarked) [5e, 2-phenyl-N-(2-(pyrrolidin-1-yl)ethyl) bicyclo[2.2.1]heptan-2-amine]	313	165		
Fc1ccc(C2(NCCN3CCOCC3)CC3CCC2C3)cc1 (centres unmarked) [5d, 2-(4-fluorophenyl)-N-(2-morpholino-ethyl)bicyclo [2.2.1]heptan-2-amine]	> 1000		> 1000	
